Data: US20080233216A1, “Composition Comprising the Extract of Siegesbeckiae Herba For Preventing and Treating Arthritis and the Use Thereof” (Industry Academic Cooperation Foundation Of Kyunghee …, priority 2006, published 2008)

Columns and labels:
Format in all cases: in vivo
Male ICR mouse [1] = experiment: Acetic acid induced writhing analgesia test; settings: 100 mg/kg oral, 1 h before 0.7% acetic acid; writhing counted 10 min
Protocol: In order to determine the analgesic activity of the inventive extract of the present invention, acetic acid-induced writhing test was performed according to the method disclosed in the literature as follows (Whittle B A, Brit. J. Pharmacol. Chemother., 22, pp 246-253, 1964).
Male ICR mouse (Jung Ang laboratory animal, Japan) weighing from 20 to 25 g was acclimated for several days and each group consists of 10 mice.

Male ICR mouse [2] = experiment: Arachidonic acid induced ear edema; settings: 100 mg/kg oral; ear thickness 1 hour after arachidonic acid
Protocol: In order to determine the anti-inflammatory activity of inventive extract, following test using arachidonic acid-induced ear edema was performed according to method disclosed in the literature (Zhou H et al., Biol. Pharm. Bull., 29(2) pp 253-260, 2006).
Male ICR mouse (Jung Ang laboratory animal, Japan) weighing from 20 to 30 g was used as an experimental animal and each group consists of 10 mice. […] After 1 hour, the increased rate of ear thickness was calculated by comparing with that of left ear and the result was shown in Table 3.

Male ICR mouse [3] = experiment: Croton oil induced ear oedema; settings: 100 mg/kg oral; ear thickness 4 hours after 2.5% croton oil
Protocol: In order to determine the anti-inflammatory activity of inventive extract, following test using croton oil-induced ear edema was performed according to method disclosed in the literature (Zhang B et al., Eur. J. Pharmacol., 530(1-2), pp 166-171, 2006).
Male ICR mouse (Jung Ang laboratory animal, Japan) weighing from 20 to 30 g was used as an experimental animal and each group consists of 6 mice. […] After 4 hours, the increased rate of ear thickness was calculated by comparing with that of left ear and the result was shown in Table 4.

In the case of `Cc1ccc(-c2cc(C(F)(F)F)nn2-c2ccc(S(N)(=O)=O)cc2)cc1` [Celecoxib], the “Inhibition of writhing (%)” value (Male ICR mouse [1]) was 61.9%, the “Inhibition rate of edema (%)” value (Male ICR mouse [2]) was 25.29% and the “Inhibition rate of edema (%)” value (Male ICR mouse [3]) was 33.12%.
